The values below come from patent US10173991B2, “Sulfone amide linked benzothiazole inhibitors of endothelial lipase” (BRISTOL-MYERS SQUIBB COMPANY, priority 2014, dated 2019).

pIC50: −log10 of the molar value.

This assay concerns the target Endothelial lipase (EL) (Homo sapiens (Human), UniProt Q9Y5X9). Briefly: Endothelial lipase (EL) enzymatic assay with fluorescent substrate A10070 in DMPG vesicles. Format: biochemical. The procedure, abridged:
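Vesicles prepared: A10070 dried with DMPG, resuspended in HEPES pH 8.0/NaCl/EDTA, sonicated on ice. Enzyme incubated with compound 30 min at 37° C. Reaction started with 1:10 diluted vesicles. Fluorescence (490/530 nm) followed 60 min; slope from 300–900 secs gives rate.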

Sequence of Endothelial lipase (EL) (Q9Y5X9 21-500): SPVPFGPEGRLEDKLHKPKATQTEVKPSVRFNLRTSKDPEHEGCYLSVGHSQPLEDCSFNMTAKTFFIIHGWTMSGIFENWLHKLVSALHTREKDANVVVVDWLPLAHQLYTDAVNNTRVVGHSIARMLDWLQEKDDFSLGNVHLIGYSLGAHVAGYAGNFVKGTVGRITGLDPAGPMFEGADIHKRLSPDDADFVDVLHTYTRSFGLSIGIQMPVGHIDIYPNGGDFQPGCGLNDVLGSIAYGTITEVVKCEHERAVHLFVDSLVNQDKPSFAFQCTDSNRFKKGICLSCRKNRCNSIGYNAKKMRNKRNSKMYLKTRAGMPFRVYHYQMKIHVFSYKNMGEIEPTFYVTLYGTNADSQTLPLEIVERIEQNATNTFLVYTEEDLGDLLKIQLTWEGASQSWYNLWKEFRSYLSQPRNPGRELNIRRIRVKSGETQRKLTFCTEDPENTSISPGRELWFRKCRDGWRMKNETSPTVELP

By pIC50 is commonly meant the negative decadic logarithm of the IC50, by convention in mol/L. Consider `Cc1cc2nc(C(C(=O)NCC(=O)NC3CC3)S(=O)(=O)C(C)C)sc2cc1-c1ccc(=O)n(C(C)C)c1` (stereo not shown) [Example 207, N-[(cyclopropyl-carbamoyl)methyl]-2-{5-methyl-6-[6-oxo-1-(propan-2-yl)-1,6-dihydropyridin-3-yl]-1,3-benzothiazol-2-yl}-2-(propane-2-sulfonyl) acetamide], for which the negative-log IC50 (pIC50) was 8.00.

Compound `COCCS(=O)(=O)C(C(=O)NCC(=O)NC1CC1)c1nc2c(F)cc(-c3ccc(C(=O)N4CCOCC4)cc3)cc2s1` (stereo not shown) [Example 208, N-[(cyclopropyl-carbamoyl)methyl]-2-{4-fluoro-6-[4-(morpholine-4-carbonyl)phenyl]-1,3-benzothiazol-2-yl}-2-(2-methoxyethane-sulfonyl) acetamide] gave a pIC50 of 7.96.

Take `Cc1cc2nc(C(C(=O)NCC(=O)NC3CC3)S(=O)(=O)C(C)C)sc2cc1-c1ccc(C(F)(F)F)nc1` (stereo not shown) [Example 209, N-[(cyclopropyl-carbamoyl)methyl]-2-{5-methyl-6-[6-(trifluoromethyl)pyridin-3-yl]-1,3-benzothiazol-2-yl}-2-(propane-2-sulfonyl) acetamide]: the pIC50 is 7.96.

The compound `COCCNC(=O)c1cccc(-c2cc3sc(C(C(=O)NCC(=O)NC4CC4)S(=O)(=O)C(C)C)nc3cc2C)c1` (stereo not shown) [Example 210, 3-[2-({[(cyclopropyl-carbamoyl)methyl]carbamoyl} (propane-2-sulfonyl)methyl)-5-methyl-1,3-benzothiazol-6-yl]-N-(2-methoxyethyl) benzamide] had a pIC50 of 7.92.

On to `COc1ncc(-c2cc3sc(C(C(=O)NCC(=O)NC4CC4)S(=O)(=O)C(C)C)nc3cc2C)cc1F` (stereo not shown) [Example 211, N-[(cyclopropyl-carbamoyl)methyl]-2-[6-(5-fluoro-6-methoxypyridin-3-yl)-5-methyl-1,3-benzothiazol-2-yl]-2-(propane-2-sulfonyl) acetamide], for which the pIC50 is 7.85.

With `Cc1ncc(-c2cc3sc(C(C(=O)NCC(=O)NC4CC4)S(=O)(=O)C(C)C)nc3cc2C)cn1` (stereo not shown) [Example 212, N-[(cyclopropyl-carbamoyl)methyl]-2-[5-methyl-6-(2-methylpyrimidin-5-yl)-1,3-benzothiazol-2-yl]-2-(propane-2-sulfonyl) acetamide], the pIC50 was 7.82.

Take `O=C(CNC(=O)C(c1nc2ccc(-c3ccc(C(=O)N4CCOCC4)cc3)cc2s1)S(=O)(=O)Cc1ccc(F)cc1)NC1CC1` (stereo not shown) [Example 213, N-[(cyclopropyl-carbamoyl)methyl]-2-[(4-fluorophenyl)methanesulfonyl]-2-{6-[4-(morpholine-4-carbonyl)phenyl]-1,3-benzothiazol-2-yl}acetamide]: the negative logarithm of the IC50 (pIC50) was 7.82.

Turning to `CN(C)C(=O)c1ccc(-c2ccc3nc(C(C(=O)NCC(=O)NC4CC4)S(=O)(=O)Cc4ccc(F)cc4)sc3c2)cc1` (stereo not shown) [Example 214, 4-[2-({[(cyclopropyl-carbamoyl)methyl]carbamoyl}(4-fluorophenyl)methanesulfonyl-methyl)-1,3-benzothiazol-6-yl]-N,N-dimethyl-benzamide], the pIC50 is 7.74.

`Cc1cc2nc(C(C(=O)NCC(=O)NC3CC3)S(=O)(=O)C(C)C)sc2cc1-c1ccc(C(=O)N(C)C)cc1` (stereo not shown) [Example 215, 4-[2-({[(cyclopropyl-carbamoyl)methyl]carbamoyl} (propane-2-sulfonyl)methyl)-5-methyl-1,3-benzothiazol-6-yl]-N,N-dimethyl-benzamide]: the pIC50 is 7.72.

Compound `COCCS(=O)(=O)C(C(=O)NCC(=O)NC1CC1)c1nc2c(F)cc(-c3ccc4[nH]c(=O)ccc4c3)cc2s1` (stereo not shown) [Example 216, N-[(cyclopropyl-carbamoyl)methyl]-2-[4-fluoro-6-(2-oxo-1,2-dihydroquinolin-6-yl)-1,3-benzothiazol-2-yl]-2-(2-methoxyethane-sulfonyl) acetamide] had a negative logarithm of the IC50 (pIC50) of 7.72.

Compound `COCCS(=O)(=O)C(C(=O)NCC(=O)NC1CC1)c1nc2c(F)cc(-c3ccc(C(F)(F)F)nc3)cc2s1` (stereo not shown) [Example 217, N-[(cyclopropyl-carbamoyl)methyl]-2-{4-fluoro-6-[6-(trifluoromethyl)pyridin-3-yl]-1,3-benzothiazol-2-yl}-2-(2-methoxyethane-sulfonyl) acetamide] had a pIC50 of 7.59.

For the compound `COCCNC(=O)c1ccc(-c2cc(F)c3nc(C(C(=O)NCC(=O)NC4CC4)S(=O)(=O)CCOC)sc3c2)cc1` (stereo not shown) [Example 218, 4-[2-({[(cyclopropyl-carbamoyl)methyl]carbamoyl}(2-methoxyethane-sulfonyl)methyl)-4-fluoro-1,3-benzothiazol-6-yl]-N-(2-methoxyethyl) benzamide], the pIC50 is 7.55.

For the compound `COCCS(=O)(=O)C(C(=O)NCC(=O)NC1CC1)c1nc2cc(OC)c(-c3cccnc3F)cc2s1` (stereo not shown) [Example 219, N-[(cyclopropyl-carbamoyl)methyl]-2-[6-(2-fluoropyridin-3-yl)-5-methoxy-1,3-benzothiazol-2-yl]-2-(2-methoxyethane-sulfonyl) acetamide], the pIC50 is 7.41.

`COCCS(=O)(=O)C(C(=O)NCC(=O)NC1CC1)c1nc2c(F)cc(-c3ccn(C)c(=O)c3)cc2s1` (stereo not shown) [Example 220, N-[(cyclopropyl-carbamoyl)methyl]-2-[4-fluoro-6-(1-methyl-2-oxo-1,2-dihydropyridin-4-yl)-1,3-benzothiazol-2-yl]-2-(2-methoxyethane-sulfonyl) acetamide] gave a pIC50 of 7.22.

Consider `COCCS(=O)(=O)C(C(=O)NCC(=O)NC1CC1)c1nc2c(F)cc(-c3cncnc3)cc2s1` (stereo not shown) [Example 221, N-[(cyclopropyl-carbamoyl)methyl]-2-[4-fluoro-6-(pyrimidin-5-yl)-1,3-benzothiazol-2-yl]-2-(2-methoxyethane-sulfonyl) acetamide], for which the pIC50 was 7.21.

In turn, `CC(C)(C)OC(=O)N1CCC(S(=O)(=O)C(C(=O)NCC(=O)NC2CC2)c2nc3ccc(-c4ccc(F)nc4)cc3s2)CC1` (stereo not shown) [Example 222, tert-butyl 4-({[(cyclopropyl-carbamoyl)methyl]carbamoyl}[6-(6-fluoropyridin-3-yl)-1,3-benzothiazol-2-yl]methanesulfonyl) piperidine-1-carboxylate] showed a pIC50 of 7.11.

Compound `COCCS(=O)(=O)C(C(=O)NCC(=O)NC1CC1)c1nc2c(F)cc(-c3cnc(C4CC4)nc3)cc2s1` (stereo not shown) [Example 223, N-[(cyclopropyl-carbamoyl)methyl]-2-[6-(2-cyclopropyl-pyrimidin-5-yl)-4-fluoro-1,3-benzothiazol-2-yl]-2-(2-methoxyethane-sulfonyl) acetamide] had a pIC50 of 7.10.

On to `CN(C)c1ccc(-c2ccc3nc(C(C(=O)NCC(=O)NC4CC4)S(=O)(=O)Cc4ccc(F)cc4)sc3c2)cn1` (stereo not shown) [Example 224, N-[(cyclopropyl-carbamoyl)methyl]-2-{6-[6-(dimethylamino)pyridin-3-yl]-1,3-benzothiazol-2-yl}-2-[(4-fluorophenyl)methanesulfonyl] acetamide], for which the negative-log IC50 (pIC50) was 7.07.

In turn, `COCCS(=O)(=O)C(C(=O)NCC(=O)NC1CC1)c1nc2c(F)cc(-c3ccc(=O)n(C(C)C)c3)cc2s1` (stereo not shown) [Example 225, N-[(cyclopropyl-carbamoyl)methyl]-2-{4-fluoro-6-[6-oxo-1-(propan-2-yl)-1,6-dihydropyridin-3-yl]-1,3-benzothiazol-2-yl}-2-(2-methoxyethane-sulfonyl) acetamide] showed a pIC50 of 7.06.
